{
  "source": "patent US11264117B2",
  "about": "“Neoantigen identification using hotspots” (Gritstone bio, Inc., priority 2017, dated 2022)",
  "test_system": "IFNγ-producing T-cells",
  "assay": "IFN-gamma ELISpot on in vitro expanded (IVS) NSCLC patient PBMCs with patient-specific neoantigen peptide pools or individual peptides",
  "format": "cell-based, human",
  "settings": "NSCLC patient PBMCs after IVS culture",
  "method": "To do so, archival FFPE tumor biopsies and 5-30 ml of peripheral blood were analyzed from 9 patients with metastatic NSCLC undergoing anti-PD(L)1 therapy (Supplementary Table 2: Patient demographics and treatment information for N=9 patients studied in FIGS. 17A-C. Key fields include tumor stage and subtype, anti-PD1 therapy received, and summary of NGS results.). […] The full MS model was applied to prioritize 20 neoepitopes per patient for testing against pre-existing anti-tumor T-cell responses. To focus the analysis on likely CD8 responses, the prioritized peptides were synthesized as 8-11mer minimal epitopes (Methods), and then peripheral blood mononuclear cells (PBMCs) were cultured with the synthesized peptides in short in vitro stimulation (IVS) cultures to expand neoantigen-reactive T-cells (Supplementary Table 3). After two weeks the presence of antigen-specific T-cells was assessed using IFN-gamma ELISpot against the prioritized neoepitopes. In seven patients for whom sufficient PBMCs were available, separate experiments were also performed to fully or partially deconvolve the specific antigens recognized. The results are depicted in FIGS. 17A-C and 18A-21.\nFIG. 17A depicts detection of T-cell responses to patient-specific neoantigen peptide pools for nine patients. […]",
  "note": "Ends that are not written are not given here.",
  "data": [
    {"sequence": "GTKKDVDVLK", "values": [
      {"measurement": "T-cell recognition of individual peptide", "value": "recognized by CD8 T-cells"}
    ]}
  ]
}
